What was measured:
[1] = molecular target: Serine/threonine-protein kinase ICK (Homo sapiens) (UniProt Q9UPZ9); conditions: Compound concentration 1000.0 nM
[2] = molecular target: Atypical kinase COQ8B, mitochondrial (Homo sapiens) (UniProt Q96D53); conditions: Compound concentration 1000.0 nM
[3] = molecular target: Serine/threonine-protein kinase STK11 (Homo sapiens) (UniProt Q15831); conditions: Compound concentration 1000.0 nM
[4] = molecular target: Tyrosine-protein kinase ZAP-70 (Homo sapiens) (UniProt P43403); conditions: Compound concentration 1000.0 nM
[5] = molecular target: Mitogen-activated protein kinase 7 (Homo sapiens) (UniProt Q13164); conditions: Compound concentration 1000.0 nM
[6] = molecular target: Interleukin-1 receptor-associated kinase 3 (Homo sapiens) (UniProt Q9Y616); conditions: Compound concentration 1000.0 nM
[7] = test system: Tyrosine-protein kinase ABL1 (Homo sapiens), P00519 [F317L]; conditions: Compound concentration 1000.0 nM
[8] = molecular target: Serine/threonine-protein kinase 32C (Homo sapiens) (UniProt Q86UX6); conditions: Compound concentration 1000.0 nM
[9] = molecular target: Mitogen-activated protein kinase kinase kinase kinase 3 (Homo sapiens) (UniProt Q8IVH8); conditions: Compound concentration 1000.0 nM
[10] = molecular target: Serine/threonine-protein kinase Nek10 (Homo sapiens) (UniProt Q6ZWH5); conditions: Compound concentration 1000.0 nM
[11] = molecular target: LIM domain kinase 2 (Homo sapiens) (UniProt P53671); conditions: Compound concentration 1000.0 nM
[12] = molecular target: Cyclin-dependent kinase 9 (Homo sapiens) (UniProt P50750); conditions: Compound concentration 1000.0 nM
[13] = molecular target: Sigma non-opioid intracellular receptor 1 (Homo sapiens) (UniProt Q99720); conditions: Compound concentration 10.0 uM
[14] = molecular target: Protein kinase C eta type (Homo sapiens) (UniProt P24723); conditions: Compound concentration 1000.0 nM
[15] = molecular target: Tyrosine-protein kinase ITK/TSK (Homo sapiens) (UniProt Q08881); conditions: Compound concentration 1000.0 nM
[16] = molecular target: Ankyrin repeat and protein kinase domain-containing protein 1 (Homo sapiens) (UniProt Q8NFD2); conditions: Compound concentration 1000.0 nM
[17] = molecular target: Rho-associated protein kinase 1 (Homo sapiens) (UniProt Q13464); conditions: Compound concentration 1000.0 nM
[18] = molecular target: Serine/threonine-protein kinase PAK 5 (Homo sapiens) (UniProt Q9P286); conditions: Compound concentration 1000.0 nM
[19] = molecular target: Hormonally up-regulated neu tumor-associated kinase (Homo sapiens) (UniProt P57058); conditions: Compound concentration 1000.0 nM
[20] = molecular target: STE20-like serine/threonine-protein kinase (Homo sapiens) (UniProt Q9H2G2); conditions: Compound concentration 1000.0 nM
[21] = molecular target: MAP/microtubule affinity-regulating kinase 3 (Homo sapiens) (UniProt P27448); conditions: Compound concentration 1000.0 nM
[22] = molecular target: Interleukin-1 receptor-associated kinase 1 (Homo sapiens) (UniProt P51617); conditions: Compound concentration 1000.0 nM
[23] = molecular target: Serine/threonine-protein kinase SIK2 (Homo sapiens) (UniProt Q9H0K1); conditions: Compound concentration 1000.0 nM
[24] = molecular target: Serine/threonine-protein kinase Nek3 (Homo sapiens) (UniProt P51956); conditions: Compound concentration 1000.0 nM
[25] = molecular target: Serine/threonine-protein kinase PAK 6 (Homo sapiens) (UniProt Q9NQU5); conditions: Compound concentration 1000.0 nM
[26] = molecular target: 5-hydroxytryptamine receptor 6 (Homo sapiens) (UniProt P50406); conditions: Compound concentration 10.0 uM
[27] = molecular target: Mitogen-activated protein kinase kinase kinase kinase 1 (Homo sapiens) (UniProt Q92918); conditions: Compound concentration 1000.0 nM
[28] = molecular target: Mitogen-activated protein kinase kinase kinase 9 (Homo sapiens) (UniProt P80192); conditions: Compound concentration 1000.0 nM
[29] = molecular target: Non-receptor tyrosine-protein kinase TNK1 (Homo sapiens) (UniProt Q13470); conditions: Compound concentration 1000.0 nM
[30] = molecular target: Citron Rho-interacting kinase (Homo sapiens) (UniProt O14578); conditions: Compound concentration 1000.0 nM
[31] = molecular target: Maternal embryonic leucine zipper kinase (Homo sapiens) (UniProt Q14680); conditions: Compound concentration 1000.0 nM
[32] = molecular target: Sodium-dependent noradrenaline transporter (Homo sapiens) (UniProt P23975); conditions: Compound concentration 10.0 uM
[33] = molecular target: Calcium/calmodulin-dependent protein kinase type 1G (Homo sapiens) (UniProt Q96NX5); conditions: Compound concentration 1000.0 nM
[34] = molecular target: Macrophage-stimulating protein receptor (Homo sapiens) (UniProt Q04912); conditions: Compound concentration 1000.0 nM
[35] = molecular target: Serine/threonine-protein kinase DCLK3 (Homo sapiens) (UniProt Q9C098); conditions: Compound concentration 1000.0 nM
[36] = molecular target: Dual specificity protein kinase TTK (Homo sapiens) (UniProt P33981); conditions: Compound concentration 1000.0 nM
[37] = test system: Leucine-rich repeat serine/threonine-protein kinase 2 (Homo sapiens), Q5S007 [G2019S]; conditions: Compound concentration 1000.0 nM
[38] = test system: Tyrosine-protein kinase ABL1 (Homo sapiens), P00519 [H396P]; conditions: Compound concentration 1000.0 nM
[39] = molecular target: Inhibitor of nuclear factor kappa-B kinase subunit alpha (Homo sapiens) (UniProt O15111); conditions: Compound concentration 1000.0 nM
[40] = molecular target: Mitogen-activated protein kinase 6 (Homo sapiens) (UniProt Q16659); conditions: Compound concentration 1000.0 nM
[41] = test system: Tyrosine-protein kinase ABL1 (Homo sapiens), P00519 [F317I]; conditions: Compound concentration 1000.0 nM
[42] = molecular target: Ephrin type-A receptor 7 (Homo sapiens) (UniProt Q15375); conditions: Compound concentration 1000.0 nM
[43] = molecular target: Ephrin type-B receptor 1 (Homo sapiens) (UniProt P54762); conditions: Compound concentration 1000.0 nM
[44] = test system: Receptor-type tyrosine-protein kinase FLT3 (Homo sapiens), P36888 [D835H]; conditions: Compound concentration 1000.0 nM
[45] = molecular target: ALK tyrosine kinase receptor (Homo sapiens) (UniProt Q9UM73); conditions: Compound concentration 1000.0 nM
Sequence of ALK tyrosine kinase receptor (Homo sapiens) (Q9UM73 19-1620 limits assumed): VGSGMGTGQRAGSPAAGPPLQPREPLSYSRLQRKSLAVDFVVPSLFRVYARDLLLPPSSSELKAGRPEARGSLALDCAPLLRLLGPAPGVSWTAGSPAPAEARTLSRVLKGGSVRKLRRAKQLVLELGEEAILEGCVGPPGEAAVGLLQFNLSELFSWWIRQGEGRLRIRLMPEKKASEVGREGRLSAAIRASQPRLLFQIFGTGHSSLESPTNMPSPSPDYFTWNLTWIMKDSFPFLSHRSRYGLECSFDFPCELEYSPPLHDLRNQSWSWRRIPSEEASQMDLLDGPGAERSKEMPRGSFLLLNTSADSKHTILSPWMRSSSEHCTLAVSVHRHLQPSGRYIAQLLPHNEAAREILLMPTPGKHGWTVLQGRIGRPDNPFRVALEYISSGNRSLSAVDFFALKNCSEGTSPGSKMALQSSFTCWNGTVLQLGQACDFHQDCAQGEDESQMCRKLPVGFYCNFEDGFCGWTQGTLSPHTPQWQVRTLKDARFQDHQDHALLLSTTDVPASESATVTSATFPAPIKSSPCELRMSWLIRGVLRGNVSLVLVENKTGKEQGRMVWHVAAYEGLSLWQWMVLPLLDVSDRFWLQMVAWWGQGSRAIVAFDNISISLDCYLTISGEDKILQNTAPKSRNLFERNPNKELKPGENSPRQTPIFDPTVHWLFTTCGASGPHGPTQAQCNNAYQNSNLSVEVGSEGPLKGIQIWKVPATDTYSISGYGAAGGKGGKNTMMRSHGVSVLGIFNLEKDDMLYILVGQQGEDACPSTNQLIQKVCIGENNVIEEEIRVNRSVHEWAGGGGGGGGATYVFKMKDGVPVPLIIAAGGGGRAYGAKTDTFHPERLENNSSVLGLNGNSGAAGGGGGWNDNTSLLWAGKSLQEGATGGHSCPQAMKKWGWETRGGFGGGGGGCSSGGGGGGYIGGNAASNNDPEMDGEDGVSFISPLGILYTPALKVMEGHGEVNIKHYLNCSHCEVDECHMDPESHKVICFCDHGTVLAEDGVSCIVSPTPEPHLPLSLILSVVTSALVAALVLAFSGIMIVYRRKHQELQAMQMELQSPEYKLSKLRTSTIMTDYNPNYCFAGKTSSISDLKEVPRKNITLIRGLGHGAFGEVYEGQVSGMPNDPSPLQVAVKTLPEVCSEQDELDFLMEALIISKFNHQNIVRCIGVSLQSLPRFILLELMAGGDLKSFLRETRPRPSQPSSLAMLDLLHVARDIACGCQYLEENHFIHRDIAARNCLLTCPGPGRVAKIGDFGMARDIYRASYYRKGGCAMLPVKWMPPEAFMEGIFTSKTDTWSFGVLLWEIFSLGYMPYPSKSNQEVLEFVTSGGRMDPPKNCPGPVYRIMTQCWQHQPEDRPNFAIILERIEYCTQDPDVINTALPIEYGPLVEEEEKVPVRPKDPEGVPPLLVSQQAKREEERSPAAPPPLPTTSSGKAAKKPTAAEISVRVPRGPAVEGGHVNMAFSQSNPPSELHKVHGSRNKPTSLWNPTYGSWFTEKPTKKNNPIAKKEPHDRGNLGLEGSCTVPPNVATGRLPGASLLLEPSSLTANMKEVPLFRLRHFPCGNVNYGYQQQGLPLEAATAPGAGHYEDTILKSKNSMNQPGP

Sequence of Hormonally up-regulated neu tumor-associated kinase (Homo sapiens) (P57058 whole entry): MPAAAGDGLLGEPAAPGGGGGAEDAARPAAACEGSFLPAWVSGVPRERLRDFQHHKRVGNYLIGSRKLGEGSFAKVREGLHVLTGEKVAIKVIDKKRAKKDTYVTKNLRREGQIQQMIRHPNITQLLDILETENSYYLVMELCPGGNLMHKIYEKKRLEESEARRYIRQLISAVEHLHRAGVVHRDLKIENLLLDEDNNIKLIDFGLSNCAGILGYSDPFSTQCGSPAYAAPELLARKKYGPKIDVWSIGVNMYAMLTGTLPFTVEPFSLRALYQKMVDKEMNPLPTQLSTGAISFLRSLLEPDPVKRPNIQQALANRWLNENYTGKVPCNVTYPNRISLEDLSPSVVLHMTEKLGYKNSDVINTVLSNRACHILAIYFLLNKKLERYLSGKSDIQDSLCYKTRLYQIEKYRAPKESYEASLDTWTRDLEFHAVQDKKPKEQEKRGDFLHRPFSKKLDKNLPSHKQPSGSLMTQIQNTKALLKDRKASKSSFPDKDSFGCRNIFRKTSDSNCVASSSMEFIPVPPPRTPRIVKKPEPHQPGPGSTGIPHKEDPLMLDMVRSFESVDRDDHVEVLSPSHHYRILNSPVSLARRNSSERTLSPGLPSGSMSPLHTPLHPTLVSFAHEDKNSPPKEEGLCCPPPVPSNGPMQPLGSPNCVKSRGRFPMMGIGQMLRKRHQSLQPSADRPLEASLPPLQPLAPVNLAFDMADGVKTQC
Sequence of Citron Rho-interacting kinase (Homo sapiens) (O14578 whole entry): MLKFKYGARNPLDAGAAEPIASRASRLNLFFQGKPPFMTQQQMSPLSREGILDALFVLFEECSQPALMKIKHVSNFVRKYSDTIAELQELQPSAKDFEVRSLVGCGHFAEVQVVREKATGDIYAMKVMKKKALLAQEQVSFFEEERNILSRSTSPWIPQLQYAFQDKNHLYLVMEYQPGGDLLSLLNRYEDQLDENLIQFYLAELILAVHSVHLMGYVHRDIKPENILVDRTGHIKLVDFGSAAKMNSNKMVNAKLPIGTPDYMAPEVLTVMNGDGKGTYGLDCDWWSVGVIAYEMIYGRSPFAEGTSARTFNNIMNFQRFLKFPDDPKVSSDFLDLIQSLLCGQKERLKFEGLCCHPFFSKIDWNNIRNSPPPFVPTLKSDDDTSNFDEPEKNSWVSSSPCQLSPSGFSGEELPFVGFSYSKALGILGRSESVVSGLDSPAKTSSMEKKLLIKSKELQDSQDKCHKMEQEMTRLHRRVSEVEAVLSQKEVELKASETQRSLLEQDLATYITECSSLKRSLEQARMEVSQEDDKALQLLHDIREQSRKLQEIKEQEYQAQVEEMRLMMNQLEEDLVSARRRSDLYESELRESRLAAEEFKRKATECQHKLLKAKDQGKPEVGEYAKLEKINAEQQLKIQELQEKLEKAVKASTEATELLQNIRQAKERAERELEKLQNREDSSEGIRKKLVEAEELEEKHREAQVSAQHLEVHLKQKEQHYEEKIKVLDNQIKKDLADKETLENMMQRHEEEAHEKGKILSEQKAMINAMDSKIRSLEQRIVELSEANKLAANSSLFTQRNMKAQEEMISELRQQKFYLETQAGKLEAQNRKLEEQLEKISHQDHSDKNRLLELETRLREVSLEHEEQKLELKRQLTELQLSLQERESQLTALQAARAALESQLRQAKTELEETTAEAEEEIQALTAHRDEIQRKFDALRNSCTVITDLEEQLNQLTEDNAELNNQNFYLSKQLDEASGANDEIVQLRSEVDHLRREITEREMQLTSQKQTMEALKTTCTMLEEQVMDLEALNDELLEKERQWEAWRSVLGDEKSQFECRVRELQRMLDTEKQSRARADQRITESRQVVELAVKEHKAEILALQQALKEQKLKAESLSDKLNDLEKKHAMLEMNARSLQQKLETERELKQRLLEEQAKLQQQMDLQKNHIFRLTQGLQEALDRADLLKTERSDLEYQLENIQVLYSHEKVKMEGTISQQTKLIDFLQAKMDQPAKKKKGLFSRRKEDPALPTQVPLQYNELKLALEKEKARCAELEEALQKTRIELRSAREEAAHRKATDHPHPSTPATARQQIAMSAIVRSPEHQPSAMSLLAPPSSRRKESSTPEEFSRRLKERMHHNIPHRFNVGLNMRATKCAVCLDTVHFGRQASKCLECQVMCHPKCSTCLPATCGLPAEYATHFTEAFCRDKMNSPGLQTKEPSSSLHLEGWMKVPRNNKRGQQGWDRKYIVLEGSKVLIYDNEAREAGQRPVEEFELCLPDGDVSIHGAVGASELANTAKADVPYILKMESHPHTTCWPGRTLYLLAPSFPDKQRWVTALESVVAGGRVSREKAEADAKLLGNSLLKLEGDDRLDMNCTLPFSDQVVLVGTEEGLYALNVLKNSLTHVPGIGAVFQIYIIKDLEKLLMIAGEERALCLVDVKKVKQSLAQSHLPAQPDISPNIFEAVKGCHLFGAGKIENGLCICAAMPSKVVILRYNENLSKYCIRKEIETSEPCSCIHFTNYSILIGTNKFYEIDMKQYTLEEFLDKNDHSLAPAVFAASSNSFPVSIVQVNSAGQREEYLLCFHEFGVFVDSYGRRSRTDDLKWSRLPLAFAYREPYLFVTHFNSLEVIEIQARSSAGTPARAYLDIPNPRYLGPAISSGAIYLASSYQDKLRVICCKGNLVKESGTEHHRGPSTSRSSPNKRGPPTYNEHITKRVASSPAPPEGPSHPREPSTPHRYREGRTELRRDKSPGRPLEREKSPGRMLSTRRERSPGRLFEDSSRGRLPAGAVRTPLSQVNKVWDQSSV
Sequence of Serine/threonine-protein kinase ICK (Homo sapiens) (Q9UPZ9 whole entry): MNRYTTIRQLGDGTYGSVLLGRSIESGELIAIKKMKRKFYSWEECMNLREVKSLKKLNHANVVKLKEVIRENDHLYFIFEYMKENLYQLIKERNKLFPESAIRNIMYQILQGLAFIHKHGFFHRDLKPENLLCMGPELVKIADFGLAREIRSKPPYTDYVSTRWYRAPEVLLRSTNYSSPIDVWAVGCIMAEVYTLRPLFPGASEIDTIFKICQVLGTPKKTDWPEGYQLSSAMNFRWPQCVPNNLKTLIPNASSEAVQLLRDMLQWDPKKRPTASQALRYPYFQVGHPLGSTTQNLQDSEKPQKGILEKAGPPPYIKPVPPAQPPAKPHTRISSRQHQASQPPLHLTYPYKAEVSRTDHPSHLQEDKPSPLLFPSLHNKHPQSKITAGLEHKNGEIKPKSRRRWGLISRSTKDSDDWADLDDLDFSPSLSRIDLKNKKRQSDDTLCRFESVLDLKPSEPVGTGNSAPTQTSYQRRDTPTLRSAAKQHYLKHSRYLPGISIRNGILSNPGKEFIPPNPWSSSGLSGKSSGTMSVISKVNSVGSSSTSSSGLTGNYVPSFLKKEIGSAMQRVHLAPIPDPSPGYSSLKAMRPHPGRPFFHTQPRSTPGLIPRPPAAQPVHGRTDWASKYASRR

Compound: C[C@@H](c1cccc(C#N)c1)n1cc(Cl)cc(C(N)=O)c1=N [(S)-9s]
- residual activity [1]: 81%
- residual activity [2]: 88%
- residual activity [3]: 74%
- residual activity [4]: 84%
- residual activity [5]: 88%
- residual activity [6]: 99%
- residual activity [7]: 0%
- residual activity [8]: 100%
- residual activity [9]: 100%
- residual activity [10]: 91%
- residual activity [11]: 100%
- residual activity [12]: 91%
- inhibition [13]: 17.4%
- residual activity [14]: 98%
- residual activity [15]: 82%
- residual activity [16]: 95%
- residual activity [17]: 71%
- residual activity [18]: 97%
- residual activity [19]: 100%
- residual activity [20]: 88%
- residual activity [21]: 98%
- residual activity [22]: 76%
- residual activity [23]: 100%
- residual activity [24]: 44%
- residual activity [25]: 86%
- inhibition [26]: 7.75%
- residual activity [27]: 96%
- residual activity [28]: 100%
- residual activity [29]: 94%
- residual activity [30]: 100%
- residual activity [31]: 78%
- inhibition [32]: -4.73%
- residual activity [33]: 100%
- residual activity [34]: 100%
- residual activity [35]: 86%
- residual activity [36]: 100%
- residual activity [37]: 100%
- residual activity [38]: 76%
- residual activity [39]: 100%
- residual activity [40]: 100%
- residual activity [41]: 76%
- residual activity [42]: 100%
- residual activity [43]: 94%
- residual activity [44]: 81%
- residual activity [45]: 83%

Compound: C[C@H](c1cccc(C#N)c1)n1cc(Cl)cc(C(N)=O)c1=N [(R)-9s]
- residual activity [1]: 98%
- residual activity [2]: 100%
- residual activity [3]: 96%
- residual activity [4]: 92%
- residual activity [5]: 88%
- residual activity [6]: 99%
- residual activity [7]: 83%
- residual activity [8]: 100%
- residual activity [9]: 76%
- residual activity [10]: 99%
- residual activity [11]: 100%
- residual activity [12]: 84%
- inhibition [13]: 17.7%
- residual activity [14]: 100%
- residual activity [15]: 90%
- residual activity [16]: 98%
- residual activity [17]: 71%
- residual activity [18]: 100%
- residual activity [19]: 89%
- residual activity [20]: 100%
- residual activity [21]: 100%
- residual activity [22]: 71%
- residual activity [23]: 100%
- residual activity [24]: 66%
- residual activity [25]: 100%
- inhibition [26]: 6.03%
- residual activity [27]: 100%
- residual activity [28]: 95%
- residual activity [29]: 77%
- residual activity [30]: 96%
- residual activity [31]: 74%
- inhibition [32]: -7.01%
- residual activity [33]: 100%
- residual activity [34]: 100%
- residual activity [35]: 99%
- residual activity [36]: 66%
- residual activity [37]: 100%
- residual activity [38]: 79%
- residual activity [39]: 100%
- residual activity [40]: 0%
- residual activity [41]: 85%
- residual activity [42]: 98%
- residual activity [43]: 100%
- residual activity [44]: 80%
- residual activity [45]: 79%

Reference: ChEMBL document CHEMBL4507301 (2021)
